In ChEMBL document CHEMBL1201862, “PubChem BioAssay data set” (2004):
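Grown in 96-well plates, cells were treated for 48 hours with each compound at five concentrations. Insufficient inhibition: endpoint recorded as highest concentration tested. GI50 = concentration required for 50% inhibition of growth.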 Activity calls are given as the source filed them. No stated cut-off is given here; in the data, active = GI50 up to about 1.1 µM and inactive = higher.

Key:
Assay in all cases: inhibition of tumour cell growth, NCI panel, 48 h
[1] = test system: 786-0
[2] = test system: A498
[3] = test system: A549
[4] = test system: ACHN
[5] = test system: BT-549
[6] = test system: CAKI-1
[7] = test system: CCRF-CEM
[8] = test system: COLO 205
[9] = test system: DU-145
[10] = test system: EKVX
[11] = test system: HCC 2998
[12] = test system: HCT-116
[13] = test system: HCT-15
[14] = test system: HOP-62
[15] = test system: HOP-92
[16] = test system: HT-29
[17] = test system: IGROV-1
[18] = test system: K562
[19] = test system: KM12
[20] = test system: LOX IMVI
[21] = test system: M14
[22] = test system: MCF7
[23] = test system: MDA-MB-231
[24] = test system: MDA-MB-435
[25] = test system: MDA-N
[26] = test system: MOLT-4
[27] = test system: NCI-H226
[28] = test system: NCI-H23
[29] = test system: NCI-H460
[30] = test system: NCI/ADR-RES
[31] = test system: OVCAR-3
[32] = test system: OVCAR-4
[33] = test system: OVCAR-5
[34] = test system: OVCAR-8
[35] = test system: PC-3
[36] = test system: RPMI-8226
[37] = test system: RXF 393
[38] = test system: SF-295
[39] = test system: SF-539
[40] = test system: SK-MEL-2
[41] = test system: SK-MEL-5
[42] = test system: SK-OV-3
[43] = test system: SN12C
[44] = test system: SNB-19
[45] = test system: SNB-75
[46] = test system: SR
[47] = test system: SW-620
[48] = test system: T47D
[49] = test system: TK-10
[50] = test system: U-251
[51] = test system: UACC-257
[52] = test system: UACC-62
[53] = test system: UO-31

O=C1c2ccccc2-n2c1nc1ccc(Cl)cc1c2=O
GI50 [1]: 26.1 µM (inactive)
GI50 [2]: > 100 µM (inactive)
GI50 [3]: 26.1 µM (inactive)
GI50 [4]: > 100 µM (inactive)
GI50 [5]: > 100 µM (inactive)
GI50 [6]: 33 µM (inactive)
GI50 [7]: 3.2 µM (inactive)
GI50 [8]: > 100 µM (inactive)
GI50 [9]: > 100 µM (inactive)
GI50 [10]: 92 µM (inactive)
GI50 [11]: > 100 µM (inactive)
GI50 [12]: 71.4 µM (inactive)
GI50 [13]: 56.1 µM
GI50 [14]: 30.8 µM (inactive)
GI50 [15]: 45.3 µM (inactive)
GI50 [16]: > 100 µM (inactive)
GI50 [17]: 78.2 µM (inactive)
GI50 [18]: 14.3 µM (inactive)
GI50 [19]: > 100 µM (inactive)
GI50 [20]: > 100 µM (inactive)
GI50 [21]: > 100 µM (inactive)
GI50 [22]: 83.9 µM (inactive)
GI50 [23]: 62.1 µM (inactive)
GI50 [24]: 15.6 µM (inactive)
GI50 [25]: 16.6 µM (inactive)
GI50 [26]: 78.3 µM (inactive)
GI50 [27]: > 100 µM (inactive)
GI50 [28]: 66.2 µM (inactive)
GI50 [29]: > 100 µM (inactive)
GI50 [30]: > 100 µM (inactive)
GI50 [31]: > 100 µM (inactive)
GI50 [32]: > 100 µM (inactive)
GI50 [33]: > 100 µM (inactive)
GI50 [34]: 35.2 µM (inactive)
GI50 [35]: > 100 µM (inactive)
GI50 [36]: 1.36 µM (inactive)
GI50 [37]: 3.48 µM (inactive)
GI50 [38]: 42.3 µM (inactive)
GI50 [39]: > 100 µM (inactive)
GI50 [40]: 89.9 µM (inactive)
GI50 [41]: > 100 µM (inactive)
GI50 [42]: > 100 µM (inactive)
GI50 [43]: > 100 µM (inactive)
GI50 [44]: > 100 µM (inactive)
GI50 [45]: 27.5 µM (inactive)
GI50 [46]: 77.4 µM (inactive)
GI50 [47]: > 100 µM (inactive)
GI50 [48]: 0.474 µM (active)
GI50 [49]: 77.4 µM (inactive)
GI50 [50]: 34.5 µM (inactive)
GI50 [51]: 42.1 µM (inactive)
GI50 [52]: 16.3 µM (inactive)
GI50 [53]: 59.4 µM (inactive)
